*1 amine or outer side, *2 acyl side, *3 side chain or, on linkers, in order; H or OH if unused. Where a SMILES comes first, the peptide text is derived from it. Bridges are numbered along the chain shown (N, C = ends). [ ]: non-standard residue; d: D form. The star is where a group is joined. C20 diacid = O=C(O)CCCCCCCCCCCCCCCCCCC(=O)*; γGlu = O=C(O)[C@H](CCC(=O)[*:2])N[*:1]; Hyp = O=C(O)[C@@H]1C[C@@H](O)CN1; NMeI = CC[C@H](C)[C@H](NC)C(=O)O; Sar = CNCC(=O)O
What was measured:
[1] = target: T1, human calcitonin receptor (hCTR2) (Homo sapiens, UniProt P30988); test: hCTR2 cAMP assay (AlphaScreen) in COS7 cells; type: cell-based; conditions: cAMP induction, COS7 cells expressing hCTR2; Table 1; read-out: hCTR2 EC50
T1 construct: expressed in transfected cells
T1 sequence (P30988 25-474): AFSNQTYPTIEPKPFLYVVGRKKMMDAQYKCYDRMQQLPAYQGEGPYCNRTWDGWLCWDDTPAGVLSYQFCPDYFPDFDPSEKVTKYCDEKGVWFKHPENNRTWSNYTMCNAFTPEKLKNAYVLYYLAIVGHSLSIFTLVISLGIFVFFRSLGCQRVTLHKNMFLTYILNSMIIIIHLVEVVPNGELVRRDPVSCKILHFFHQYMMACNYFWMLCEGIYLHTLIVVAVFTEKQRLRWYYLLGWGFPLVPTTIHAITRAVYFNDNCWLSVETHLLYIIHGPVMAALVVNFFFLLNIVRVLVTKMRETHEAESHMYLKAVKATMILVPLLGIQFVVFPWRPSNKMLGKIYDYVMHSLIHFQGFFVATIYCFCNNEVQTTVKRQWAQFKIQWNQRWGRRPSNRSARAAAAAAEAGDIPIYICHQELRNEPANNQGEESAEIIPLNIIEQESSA
In short: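 cAMP induction, read by AlphaScreen after lysis, gives EC50 values via 4PL curve fitting. Peptides were applied at rising concentrations for 15 min at 37 °C, with IBMX and 0.1% casein in HEPES-buffered Tyrode pH 7.4, to COS7 cells (no endogenous RAMPs) stably expressing human CTR2.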

[2] = target: T2, human amylin receptor 3 (hAMYR3), hCTR2 co-expressed with hRAMP3 (Homo sapiens, UniProt O60896+P30988); test: hAMYR3 cAMP assay (AlphaScreen) in COS7 cells; type: cell-based; conditions: cAMP induction, COS7 cells expressing hAMYR3; Table 1; read-out: hAMYR3 EC50
T2 construct: expressed in transfected cells
T2 sequence (P30988 25-474): T1 sequence (P30988 25-474)
T2 sequence (O60896 24-148 partner): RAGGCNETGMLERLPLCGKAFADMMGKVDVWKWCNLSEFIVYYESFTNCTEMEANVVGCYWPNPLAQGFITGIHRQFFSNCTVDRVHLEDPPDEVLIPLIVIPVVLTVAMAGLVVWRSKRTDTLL
Text: The cell line COS7, originating from African Green Monkey kidney fibroblast cells, was used for establishment of the stable cell lines described below. The COS7 cellular background was used due to it being RAMP naïve, and as such it provides the best available system for testing of the monomeric hCTR and different heterodimeric amylin receptor subtypes functionally generated by introduction of the individual RAMPs.
A cell line expressing the human amylin receptor 3 (hAMYR3) was generated in the COS7 cellular background as stable clones. In brief, hCTR2 (GI:4502547) and hRAMP3 (GI:118572586) were amplified by PCR using primers encoding terminal restriction sites for subcloning. The 5′-end primers additionally encoded a near Kozak consensus sequence to ensure efficient translation. The fidelity of the DNA encoding the receptor was confirmed by DNA sequencing. The PCR products encoding the receptor were subcloned into a proprietary tri-cistronic mammalian expression vector with RAMP3, hCTR2 and neomycin (G418) resistance marker. The mammalian expression vector encoding the receptor was transfected into COS7 cells by a standard liposome transfection method. 48 hours post-transfection, cells were seeded for limited dilution cloning and selected with 1 mg/ml G418 in the culture medium. After 3 weeks, surviving colonies of hAMY3R-expressing cells were picked, propagated and tested in the amylin efficacy assay as described in Example 3 below. The functional generation of the amylin receptor phenotype was verified in the efficacy assay by a left-shifted efficacy response to amylin relative to monomeric calcitonin receptor, and one hAMYR3-expressing clone was chosen for compound profiling.
In vitro activity of test peptides at the hCTR2 and hAMYR3 receptors was assessed by measuring the induction of cAMP following stimulation of the receptor using the AlphaScreen® cAMP Assay kit from Perkin-Elmer.
Briefly, COS7 cells expressing hCTR2 (see Example 2, above) were seeded at 30-40,000 cells per well in 96-well microtiter plates coated with 0.01% poly-L-lysine, and grown for 1 day in culture in 100 μl growth medium [DMEM, 10% FCS, Penicillin (100 IU/ml), Streptomycin (100 μg/ml)]. On the day of analysis, growth medium was removed and the cells were washed once with 200 μl Tyrode buffer [Tyrode's Salts (9.6 g/I), 10 mM HEPES, pH 7.4]. Cells were incubated in 100 μl Tyrode buffer containing increasing concentrations of test peptides, 100 µM IBMX and 0.1% casein for 15 min at 37° C. The reaction was stopped by carefully decanting off the compound/buffer medium and replacing it with lysis/detection buffer (80 μl 0.1% w/v BSA, 5 mM HEPES, 0.3% v/v Tween-20 in deionized water). After incubation at room temperature for 10 min., the cAMP content of the resulting cell lysate was estimated according to the AlphaScreen® cAMP Assay manufacturer's instructions. EC50 values were estimated by computer-aided curve fitting using the 4-parameter logistic (4PL) non-linear model.

| SMILES | EC50 [1] [nM] | EC50 [2] [nM] |
| --- | --- | --- |
| CC[C@H](C)[C@@H](C(=O)N[C@@H](CC(C)C)C(=O)N[C@@H](CO)C(=O)N[C@@H](CO)C(=O)N[C@H](C(=O)N[C@@H](CCC(=O)O)C(=O)N[C@H](C(=O)NCC(=O)N[C@@H](CO)C(=O)N[C@@H](CCC(=O)O)C(=O)N[C@H](C(=O)N1CCC[C@H]1C(N)=O)[C@@H](C)O)C(C)C)[C@@H](C)O)N(C)C(=O)[C@H](C)NC(=O)CN(C)C(=O)[C@H](Cc1ccccc1)NC(=O)[C@H](CO)NC(=O)[C@H](CO)NC(=O)[C@H](CCCNC(=N)N)NC(=O)[C@@H](NC(=O)[C@H](CC(C)C)NC(=O)[C@H](Cc1ccccc1)NC(=O)[C@H](Cc1c[nH]cn1)NC(=O)[C@H](C)NC(=O)[C@H](CC(C)C)NC(=O)[C@H](CCCNC(=N)N)NC(=O)[C@H](CCC(N)=O)NC(=O)[C@@H](NC(=O)[C@H](C)NC(=O)[C@@H]1CSSC[C@H](NC(=O)[C@H](CCCNC(=N)N)NC(=O)CC[C@H](NC(=O)CCCCCCCCCCCCCCCCCCC(=O)O)C(=O)O)C(=O)N[C@@H](CC(N)=O)C(=O)N[C@@H]([C@@H](C)O)C(=O)N[C@@H](C)C(=O)N[C@@H]([C@@H](C)O)C(=O)N1)[C@@H](C)O)C(C)C [Compound 24, [19CD]-isoGlu-R-C( )-NTAT-C( )-ATQRLAHFLVRSSF-Gly(Me)-A-Ile(Me)-LSSTEVGSETP-NH2] ({C20 diacid-γGlu}-RCNTATCATQRLAHFLVRSSF[Sar]A[NMeI]LSSTEVGSETP-NH2; disulfide 2-7) | 0.085 | 0.19 |
| CC[C@H](C)[C@@H](C(=O)N[C@@H](CC(C)C)C(=O)N[C@@H](CO)C(=O)N[C@@H](CO)C(=O)N[C@H](C(=O)N[C@@H](CCC(=O)O)C(=O)N[C@H](C(=O)NCC(=O)N[C@@H](CO)C(=O)N[C@@H](Cc1ccccc1)C(=O)N[C@H](C(=O)N1C[C@H](O)C[C@H]1C(N)=O)[C@@H](C)O)C(C)C)[C@@H](C)O)N(C)C(=O)[C@H](C)NC(=O)CN(C)C(=O)[C@H](Cc1ccccc1)NC(=O)[C@H](CO)NC(=O)[C@H](CO)NC(=O)[C@H](CCCNC(=N)N)NC(=O)[C@H](CC(N)=O)NC(=O)[C@H](CC(C)C)NC(=O)[C@H](Cc1ccccc1)NC(=O)[C@H](Cc1c[nH]cn1)NC(=O)[C@H](C)NC(=O)[C@H](CC(C)C)NC(=O)[C@H](CCCNC(=N)N)NC(=O)[C@H](CCC(=O)O)NC(=O)[C@@H](NC(=O)[C@H](C)NC(=O)[C@@H]1CSSC[C@H](NC(=O)[C@H](CCCNC(=N)N)NC(=O)CC[C@H](NC(=O)CCCCCCCCCCCCCCCCCCC(=O)O)C(=O)O)C(=O)NCC(=O)N[C@@H]([C@@H](C)O)C(=O)N[C@@H](C)C(=O)N[C@@H]([C@@H](C)O)C(=O)N1)[C@@H](C)O [Compound 33, [19CD]-isoGlu-R-C( )-GTAT-C( )-ATERLAHFLNRSSF-Gly(Me)-A-Ile(Me)-LSSTEVGSFT-Hyp-NH2] ({C20 diacid-γGlu}-RCGTATCATERLAHFLNRSSF[Sar]A[NMeI]LSSTEVGSFT[Hyp]-NH2; disulfide 2-7) | 0.11 | 0.15 |
